Experiment [1] can be described thus: Cell cycle arrest in human KB cells assessed as accumulation at SubG1-phase measured after 12 hrs by propidium iodide staining-based flow cytometry (reference value: 1.23%). The format is functional. In general terms: A flow cytometer gives signals particle by particle.
Experiment [2] is described as follows: Cell cycle arrest in human KB cells assessed as accumulation at S-phase at 0.05 uM measured after 48 hrs by propidium iodide staining-based flow cytometry (reference value: 13.32%). The experiment is classed as functional.
Experiment [3] is described as follows: Cell cycle arrest in human KB cells assessed as accumulation at G0/G1-phase at 0.2 uM measured after 24 hrs by propidium iodide staining-based flow cytometry (reference value: 48.52%). The format is functional.
Experiment [4] can be described thus: Cell cycle arrest in human KB cells assessed as accumulation at S-phase measured after 60 hrs by propidium iodide staining-based flow cytometry (reference value: 12.66%). The format is functional.
Experiment [5] is described as follows: Cell cycle arrest in human KB cells assessed as accumulation at G2/M-phase at 0.2 uM measured after 60 hrs by propidium iodide staining-based flow cytometry (reference value: 18.9%). The format is functional.
Experiment [6] can be described thus: Cell cycle arrest in human KB cells assessed as accumulation at G2/M-phase measured after 12 hrs by propidium iodide staining-based flow cytometry (reference value: 30.19%). The experiment is classed as functional.
The nature of experiment [7]: Antiproliferative activity against human HT1080 cells measured after 72 hrs by MTT assay. The format is functional, cell-based. Conditions: HT-1080, 72 h. In general terms: Tetrazolium assays rely on reduction of a dye to a coloured formazan, in cell work by metabolically active cells.
A short description of experiment [8]: Antiproliferative activity against human SGC7901 cells measured after 72 hrs by MTT assay. The experiment is classed as functional, cell-based. The conditions noted are these: SGC-7901, 72 h.
Experiment [9] in a line: Cell cycle arrest in human KB cells assessed as accumulation at SubG1-phase at 0.2 uM measured after 12 hrs by propidium iodide staining-based flow cytometry (reference value: 1.23%). The experiment is classed as functional.
Experiment [10] can be described thus: Cell cycle arrest in human KB cells assessed as accumulation at S-phase at 0.05 uM measured after 24 hrs by propidium iodide staining-based flow cytometry (reference value: 16.96%). The experiment is classed as functional.
A short description of experiment [11]: Cell cycle arrest in human KB cells assessed as accumulation at S-phase at 0.2 uM measured after 48 hrs by propidium iodide staining-based flow cytometry (reference value: 13.32%). The experiment is classed as functional.
The nature of experiment [12]: Cell cycle arrest in human KB cells assessed as accumulation at SubG1-phase measured after 24 hrs by propidium iodide staining-based flow cytometry (reference value: 0.76%). The experiment is classed as functional.
A short description of experiment [13]: Cell cycle arrest in human KB cells assessed as accumulation at G2/M-phase at 0.05 uM measured after 60 hrs by propidium iodide staining-based flow cytometry (reference value: 18.9%). The experiment is classed as functional.
A short description of experiment [14]: Cell cycle arrest in human KB cells assessed as accumulation at SubG1-phase at 0.05 uM measured after 36 hrs by propidium iodide staining-based flow cytometry (reference value: 0.63%). The experiment is classed as functional.

In the case of `COc1ccc(-c2ssc(=O)c2-c2cc(OC)c(OC)c(OC)c2)cc1N`, the Activity in experiment [1] was found to be 1.85%; in experiment [2], 10.9%; in experiment [3] it was 6.24%; in experiment [4] it was 6.78%; in experiment [5] it was 19.9%; in experiment [6], 64.4%. The Activity is 2.22% in experiment [9]; 15.5% in experiment [10]; 13.1% in experiment [11]; 12.3% in experiment [12]; 14% in [13]; 10.1% in experiment [14]. Further, the figures for the IC50 in [7] and in experiment [8] were 147 nM and 172 nM, respectively.
